Laboratory results from PMC6155239, “Targeting PFKFB3 radiosensitizes cancer cells and suppresses homologous recombination” (Nature Communications, 2018).

Tests used:
AXL = target: T1, AXL (Homo sapiens, UniProt P30530); test: KINOMEscan; type: binding; details: 2000 nM; read-out: Percent Control
T1 construct: purchased DiscoverX (Eurofins) KINOMEscan / scanEDGE, inferred from the naming style

[1] = test system: intracellular F-2,6-P2 levels; test: Intracellular F-2,6-P2 quantification (van Schaftingen assay); type: cell-based; details: pancreatic, gastric and colon cancer cell lines
Description: Quantification of F-2,6-P2 was performed as described by Van Schaftingen et al.[34]. The assay is based on the potent activation of pyrophosphate-dependent phosphofructokinase-1 (PPi-PFK) from potato tubers by F-2,6-P2. The use of a series of coupled enzymes leads to a consumption of nicotinamide adenine dinucleotide (NADH) that can be followed spectrophotometrically. PANC-1, NUGC-3, SW620, or MIA PaCa-2 cells were seeded at a density of 2.5 × 10^4–3.5 × 10^4 cells per well (96-well, CLS3595, Sigma-Aldrich) and incubated overnight at 37 °C and 5% CO2. […] Plates stored at −20 °C were thawed and the F-2,6-P2 quantification was initiated by transferring 40 µL from each well of the NUNC plate to the corresponding position in a transparent 96-well SpectraPlate-MB (PerkinElmer). In order to ensure that all F-2,6-P2 measured values were within the linear range of response (between 0 and 1 nM final concentration of F-2,6-P2[34]), the same sample volume of an in-house produced F-2,6-P2 standard was included on each plate. […] The coupled enzymatic reaction was allowed to proceed for 45 min at room temperature and the absorbance at 340 nm was continuously measured every 30 s (SpectraMax plate reader, Molecular Devices). The measured absorbance was proportional to the concentration of NADH, which in turn was proportional to the levels of F-2,6-P2 within the linear range. […]

PFKFB3 = PFKFB3 (Homo sapiens, UniProt Q16875); test: ADP-Glo kinase activity assay, PFKFB3; type: biochemical
Description: The kinase activity of the bi-functional enzyme was quantified based on the production of ADP and F-2,6-P2 from ATP by ADP-GloTM Kinase Assay (Promega). The assay was performed in two steps; first, after the kinase reaction, an equal volume of ADP-GloTM Reagent was added to terminate the kinase reaction and deplete the remaining ATP. Second, the Kinase Detection Reagent was added to simultaneously convert ADP to ATP and allow the newly synthesized ATP to be measured using a luciferase/luciferin reaction. The light generated was measured using a luminescence counter (1450 MicroBeta TriLux). The assay was performed in white 384-well plates (OptiPlate, 6007299, PerkinElmer) by consecutive additions of a test compound solution (0.1 µL, serial diluted in DMSO from compound DMSO stock solution and dispensed by acoustic dispensing from UV-star 384-well plate 7360153, VWR), enzyme solution (5 µL) and substrate (fructose-6-phosphate (F6P) and adenosine-5′-triphosphate (ATP)) containing solution (5 µL). […] Four reference dose–response curves, one of them being the QC compound, were included and serial diluted as the test compounds. The final concentrations of all reagents per well were 50 mM Tris–HCl at pH 8.0, 10 mM MgCl2, 5 mM NaPi at pH 8.0, 81.48 nM PFKFB3 or 145 nM PFKFB4, 8 µM ATP, 100 µM F6P (acid treated and then neutralized to remove any contaminating F-2,6-P2[34]), 0.005% Tween-20 and 1 mM dithiothreitol. Enzyme, compounds, and controls were pre-incubated at room temperature for 15 min before the addition of substrate solution. The enzymatic reaction was allowed to proceed for 20 min and the reaction was terminated by the addition of ADP-GloTM Reagent (10 µL) to all wells followed by 40 min incubation at room temperature. […] The inhibitory potency or IC50 values of test compounds on the kinase activity of the enzymes were calculated using a four-parameter model (model 205) in XLfit (IDBS ActivityBase XE Runner).

[2] = test system: 97 kinases of the scanEDGE set; test: DiscoveRx KINOMEscan scanEDGE panel; type: binding; details: 2 µM
AKT1 = target: T2, AKT1 (Homo sapiens, UniProt P31749); test: KINOMEscan; type: binding; details: 2000 nM; read-out: Percent Control
T2 construct: purchased DiscoverX (Eurofins) KINOMEscan / scanEDGE, inferred from the naming style

ERK1 = target: T3, ERK1 (Homo sapiens, UniProt P27361); test: KINOMEscan; type: binding; details: 2000 nM; read-out: Percent Control
T3 construct: purchased DiscoverX (Eurofins) KINOMEscan / scanEDGE, inferred from the naming style

[3] = test system: peripheral blood mononuclear cells (PBMCs); test: Viability of PBMCs; type: cell-based

PFKFB3, sequence (Q16875 whole entry): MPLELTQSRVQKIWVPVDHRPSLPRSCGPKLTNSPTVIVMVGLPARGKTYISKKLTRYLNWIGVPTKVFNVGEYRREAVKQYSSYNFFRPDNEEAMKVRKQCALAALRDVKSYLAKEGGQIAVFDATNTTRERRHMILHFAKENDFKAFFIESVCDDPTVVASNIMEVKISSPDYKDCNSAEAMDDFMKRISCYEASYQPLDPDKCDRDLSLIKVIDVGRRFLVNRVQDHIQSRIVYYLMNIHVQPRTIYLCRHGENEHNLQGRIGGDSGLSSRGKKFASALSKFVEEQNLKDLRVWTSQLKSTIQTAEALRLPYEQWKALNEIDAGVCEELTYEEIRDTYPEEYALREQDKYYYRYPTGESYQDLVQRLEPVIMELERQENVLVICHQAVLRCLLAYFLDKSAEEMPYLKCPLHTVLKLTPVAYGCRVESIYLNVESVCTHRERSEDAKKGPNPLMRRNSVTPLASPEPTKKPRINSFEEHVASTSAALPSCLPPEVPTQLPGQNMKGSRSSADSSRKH
T3 sequence (P27361 whole entry): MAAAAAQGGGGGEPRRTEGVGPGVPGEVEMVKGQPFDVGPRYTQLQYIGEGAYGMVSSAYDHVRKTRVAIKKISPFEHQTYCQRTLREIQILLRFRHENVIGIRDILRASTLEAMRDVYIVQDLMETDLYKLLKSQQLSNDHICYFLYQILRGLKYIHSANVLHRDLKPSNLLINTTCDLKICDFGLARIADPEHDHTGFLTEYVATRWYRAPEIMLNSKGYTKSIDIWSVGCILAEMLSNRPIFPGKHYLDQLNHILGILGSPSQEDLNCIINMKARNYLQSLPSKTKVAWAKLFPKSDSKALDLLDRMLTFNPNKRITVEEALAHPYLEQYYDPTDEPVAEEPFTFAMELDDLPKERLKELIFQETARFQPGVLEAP
T1 sequence (P30530 26-894): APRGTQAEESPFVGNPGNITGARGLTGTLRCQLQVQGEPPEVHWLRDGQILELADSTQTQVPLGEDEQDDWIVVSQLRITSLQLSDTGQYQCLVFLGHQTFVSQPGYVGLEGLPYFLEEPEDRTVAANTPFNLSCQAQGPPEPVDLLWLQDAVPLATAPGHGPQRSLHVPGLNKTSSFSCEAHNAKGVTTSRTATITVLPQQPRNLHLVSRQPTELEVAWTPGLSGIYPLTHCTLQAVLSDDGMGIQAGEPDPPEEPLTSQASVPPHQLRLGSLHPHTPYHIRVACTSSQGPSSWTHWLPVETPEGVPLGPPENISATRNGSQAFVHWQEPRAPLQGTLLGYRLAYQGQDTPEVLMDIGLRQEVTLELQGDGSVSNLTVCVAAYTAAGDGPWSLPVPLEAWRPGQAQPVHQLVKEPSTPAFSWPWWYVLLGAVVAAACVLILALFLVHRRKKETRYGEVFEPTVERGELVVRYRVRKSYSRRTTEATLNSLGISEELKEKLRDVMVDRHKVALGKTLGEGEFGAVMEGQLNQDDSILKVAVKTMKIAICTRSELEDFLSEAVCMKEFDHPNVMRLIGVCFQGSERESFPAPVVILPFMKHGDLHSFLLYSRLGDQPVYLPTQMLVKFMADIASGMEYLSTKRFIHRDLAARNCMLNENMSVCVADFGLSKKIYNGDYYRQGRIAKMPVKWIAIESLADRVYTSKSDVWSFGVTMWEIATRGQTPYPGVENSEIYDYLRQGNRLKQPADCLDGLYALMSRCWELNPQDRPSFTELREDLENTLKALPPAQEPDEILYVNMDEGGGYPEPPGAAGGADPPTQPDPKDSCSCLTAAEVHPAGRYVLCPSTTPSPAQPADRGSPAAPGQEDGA
T2 sequence (P31749 whole entry): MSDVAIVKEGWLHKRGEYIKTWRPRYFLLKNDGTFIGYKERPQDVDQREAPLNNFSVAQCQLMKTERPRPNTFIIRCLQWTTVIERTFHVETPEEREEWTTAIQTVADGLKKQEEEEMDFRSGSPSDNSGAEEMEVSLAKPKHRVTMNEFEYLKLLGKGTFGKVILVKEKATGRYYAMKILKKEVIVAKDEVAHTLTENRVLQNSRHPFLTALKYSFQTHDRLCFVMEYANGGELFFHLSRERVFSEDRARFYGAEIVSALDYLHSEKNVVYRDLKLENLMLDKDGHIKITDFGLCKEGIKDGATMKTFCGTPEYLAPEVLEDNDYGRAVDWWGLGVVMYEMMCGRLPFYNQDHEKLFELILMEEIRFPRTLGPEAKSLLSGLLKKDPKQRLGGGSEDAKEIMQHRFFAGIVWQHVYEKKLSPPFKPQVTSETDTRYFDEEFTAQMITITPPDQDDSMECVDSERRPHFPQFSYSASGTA

O=C(O)c1ccc(NS(=O)(=O)c2cccc(-c3cc(F)ccc3O)c2)cc1O [KAN0438241, 4-{[(5′-Fluoro-2′-hydroxybiphenyl-3-yl)sulfonyl]amino}-2-hydroxybenzoic acid]
remaining binding at 2 µM (AXL): 100%
potency on intracellular F-2,6-P2 levels (in words) [1]: low µM potency
IC50 (PFKFB3; ADP-GLO assay): 190 nM
binding to the 97 targets of the scanEDGE set [2]: no significant binding
remaining binding at 2 µM (AKT1): 100%
remaining binding at 2 µM (ERK1): 99%

O=C(OCCO)c1ccc(NS(=O)(=O)c2cccc(-c3cc(F)ccc3O)c2)cc1O [KAN0438757, 2-Hydroxyethyl-4-{[(5′-fluoro-2′-hydroxybiphenyl-3-yl)sulfonyl]amino}-2-hydroxybenzoate]
potency on intracellular F-2,6-P2 levels (in words) [1]: sub-µM IC50 values
inhibition of recombinant PFKFB3 kinase activity (in words) (PFKFB3; in vitro enzymatic assay): largely inactive
binding to the 97 targets of the scanEDGE set [2]: no significant binding
effect on viability of PBMCs [3]: not affected
